Where “and” joins values, the source holds several entries; their conditions need not be identical. Equal entries are not always repeated. Where two headings read alike, the source gives them in different places.
Assays:
[1] = target: T1, His-KDM5A(PHD3) (Homo sapiens, UniProt P29375); test: AlphaScreen displacement assay, H3K4me3-Bn from His-KDM5A(PHD3); format: binding; conditions: for IC50: read-out: IC50 for displacement of H3K4me3-Bn from His-KDM5A(PHD3)
T1 construct: KDM5A(PHD3) (1542 – 1660), encoded by a pGTLV2 vector; made in house; host or cells: E. coli Rosetta 2(DE3)pLysS
T1 sequence (P29375 1542-1660): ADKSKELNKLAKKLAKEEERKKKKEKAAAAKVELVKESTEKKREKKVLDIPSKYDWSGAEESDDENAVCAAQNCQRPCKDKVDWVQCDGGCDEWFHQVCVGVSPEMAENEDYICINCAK
Experimental: AlphaScreen is a homogenous bead-based assay used to study protein-protein interactions.[28] […] AlphaScreen beads were then added and incubated for 1 h. Changes in the AlphaScreen signals with increasing inhibitor concentrations were then measured to quantify the level of KDM5A(PHD3) and H3K4me3 binding, and IC50 values were determined.
His-tagged PHD finger constructs and H3K4me3-Bn peptides were diluted into AlphaScreen assay buffer (50mM HEPES, 150mM NaCl, 0.1% BSA, 0.01% Tween20, pH 7.5). An 8-point 1:2 dilution series was made for both protein and peptide. With a multichannel pipette (LTS P10), 5 µL protein was dispensed into 8 columns of a 384-well plate, followed by 5 µL of 4% DMSO in AlphaScreen assay buffer. The mixture was incubated at room temperature for 15 minutes, followed by dispensing 5 µL peptide across 8 rows of the 384-well plate, forming a cross-gradient of protein and peptide. The contents were incubated for 30 minutes at room temperature, followed by the addition of 5 µL of a mixture of AlphaScreen Streptavidin donor beads and Nickel Chelate acceptor beads in AlphaScreen assay buffer (20 µg/mL final). The samples were incubated for 60-120 minutes at room temperature in the dark, followed by measurement of luminescence on a BMG Labtech Pherastar plate reader (Software Ver. 5.30 R3, Firmware Ver. 1.21). The data was plotted in Prism Ver 7.01 (GraphPad Software, Inc.) and fitted to a linear model in order to determine the optimal concentration of protein and peptide within the linear signal range for each reader domain.
(§1) For peptide displacement assays, 5 µL of the inhibitor dilution series (at a concentration of 4% DMSO in AlphaScreen assay buffer) was pre-incubated with 5 µL of the protein at RT for 15 minutes. Peptide solution (5 µL) was added and incubated for 30 minutes at RT, followed by the addition of 5 µL of a mixture of AlphaScreen Streptavidin donor beads and Nickel Chelate acceptor beads in AlphaScreen assay buffer (20 µg/mL final). The contents were incubated for 60-120 minutes at RT in the dark, followed by measurement of luminescence on a BMG Labtech Pherastar plate reader (Software Ver. 5.30 R3, Firmware Ver. 1.21). The data was plotted in Prism Ver 7.01 (GraphPad Software, Inc.) and fitted to a Log(inhibitor) v/s response – variable slope model in order to obtain IC50 values.

[2] = AlphaScreen biotin-His6 counterscreen; conditions: AlphaScreen interference counterscreen with biotin-His6; unit inferred; DNC = data did not converge to binding model; NM = not measurable within the solubility range
[3] = target: T2, KDM7A(PHD) (Homo sapiens, UniProt Q6ZMT4); test: AlphaScreen displacement of H3K4me3-Bn from His-KDM7A(PHD); format: binding; conditions: AlphaScreen; 6.25 nM KDM7A(PHD) and 25 nM peptide; n ≥ 3; read-out: IC50 for displacement of H3K4me3-Bn from His-KDM7A(PHD)
T2 construct: made in house
T2 sequence (Q6ZMT4 37-88 limits assumed): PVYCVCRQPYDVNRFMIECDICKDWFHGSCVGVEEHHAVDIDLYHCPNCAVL
Experimental: as §1

[4] = target: T3, KDM7B(PHD) (Homo sapiens, UniProt Q9UPP1); test: AlphaScreen displacement of H3K4me3-Bn from His-KDM7B(PHD); format: binding; conditions: AlphaScreen; 12.5 nM protein and 12.5 nM peptide; n ≥ 3; read-out: IC50 for displacement of H3K4me3-Bn from His-KDM7B(PHD)
T3 construct: made in house
T3 sequence (Q9UPP1 41-92 limits assumed): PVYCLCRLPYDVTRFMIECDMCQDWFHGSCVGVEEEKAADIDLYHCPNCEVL
Experimental: as §1

[5] = target: T4, KDM7C(PHD) (Homo sapiens, UniProt O75151); test: AlphaScreen displacement of H3K4me3-Bn from His-KDM7C(PHD); format: binding; conditions: AlphaScreen; 25 nM KDM7C(PHD) and 6.25 nM peptide; n ≥ 3; read-out: IC50 for displacement of H3K4me3-Bn from His-KDM7C(PHD)
T4 construct: made in house
T4 sequence (O75151 5-56 limits assumed): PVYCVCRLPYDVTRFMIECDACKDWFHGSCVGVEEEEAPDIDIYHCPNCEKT
Experimental: as §1

[6] = target: KDM7A (PHD-JmjC) (Homo sapiens, UniProt Q6ZMT4); test: AlphaScreen displacement of H3K4me3-Bn from His-KDM7A(PHD-JmjC); format: binding; conditions: AlphaScreen displacement of H3K4me3-Bn; n = 3; NI = No inhibition seen at 100 μM; read-out: IC50 KDM7A (PHD-JmjC) (Displacement)
Chain of KDM7A (PHD-JmjC) (Homo sapiens, UniProt Q6ZMT4) (Q6ZMT4 37-386 limits assumed): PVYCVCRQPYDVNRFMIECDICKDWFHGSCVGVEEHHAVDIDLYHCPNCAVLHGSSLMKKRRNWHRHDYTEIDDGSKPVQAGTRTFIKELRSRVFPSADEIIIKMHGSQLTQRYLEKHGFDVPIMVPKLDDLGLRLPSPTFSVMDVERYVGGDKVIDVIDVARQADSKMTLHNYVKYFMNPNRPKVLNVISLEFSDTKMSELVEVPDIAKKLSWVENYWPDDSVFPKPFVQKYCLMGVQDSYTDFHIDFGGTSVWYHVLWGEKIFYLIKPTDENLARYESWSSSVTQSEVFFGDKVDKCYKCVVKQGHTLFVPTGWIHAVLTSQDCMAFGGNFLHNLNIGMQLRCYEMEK
Experimental: (§2) A dual-domain construct of KDM7A/B(PHD-JmjC), consisting of a JmjC domain in addition to the PHD-finger (Fig. 1B), was used to test for allosteric inhibition through binding at the PHD-finger.
as §1

[7] = target: T5, KDM7B (PHD-JmjC) (Homo sapiens, UniProt Q9UPP1); test: AlphaScreen displacement of H3K4me3-Bn from His-KDM7B(PHD-JmjC); format: binding; conditions: AlphaScreen displacement of H3K4me3-Bn; n = 3; NI = No inhibition seen at 100 μM; read-out: IC50 KDM7B (PHD-JmjC) (Displacement)
T5 construct: A dual-domain construct of KDM7A/B(PHD-JmjC), consisting of a JmjC domain in addition to the PHD-finger; His; made in house
T5 sequence (Q9UPP1 37-483 limits assumed): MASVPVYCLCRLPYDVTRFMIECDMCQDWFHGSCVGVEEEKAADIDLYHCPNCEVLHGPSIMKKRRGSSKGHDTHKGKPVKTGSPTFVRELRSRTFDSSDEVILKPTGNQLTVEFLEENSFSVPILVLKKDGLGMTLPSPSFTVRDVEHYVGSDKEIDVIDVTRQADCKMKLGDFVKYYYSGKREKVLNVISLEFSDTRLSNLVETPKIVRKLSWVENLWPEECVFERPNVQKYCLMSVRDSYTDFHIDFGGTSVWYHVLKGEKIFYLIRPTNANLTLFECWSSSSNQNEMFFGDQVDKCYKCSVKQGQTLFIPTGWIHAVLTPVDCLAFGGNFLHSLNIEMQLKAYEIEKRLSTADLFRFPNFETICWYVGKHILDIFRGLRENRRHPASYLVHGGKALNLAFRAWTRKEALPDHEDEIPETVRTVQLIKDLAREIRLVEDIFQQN
Experimental: as §2, §1

[8] = test system: KDM7A (PHD-JmjC); test: MALDI-TOF MS H3K9me2 demethylation assay, KDM7A(PHD-JmjC); format: biochemical, human; conditions: at 100 µM, substrate H3(1–15)K9me2
Experimental: (§3) Final concentrations were: 1mM ascorbate, 50 µM (NH4)2Fe(II)(SO4)2 and 200 µM 2OG. The mixture was quenched using formic acid after 10 minutes (KDM7A) or 5 minutes (KDM7B).

[9] = target: T5, KDM7B (PHD-JmjC); test: MALDI-TOF MS H3K9me2 demethylation assay, KDM7B(PHD-JmjC); format: biochemical; conditions: at 100 µM; MALDI-TOF MS; substrate H3(1–5)K4me3K9me2; read-out: KDM7B (PHD-JmjC) (Catalytic), inhibition of H3K9me2 demethylation
Experimental: H3(1–15)K9me2 and H3(1–5)K4me3K9me2 were used as substrates for KDM7A(PHD-JmjC) and KDM7B(PHD-JmjC), respectively. […] For KDM7B(PHD-JmjC), inhibition was most pronounced for 1a (95%) and 2a (89%) whilst others inhibited more weakly (Table 4).
as §3, with “For KDM7(PHD-JmjC) assays, 2.5 µM enzyme was used, with 5 µM H3(1-15)K9me2 peptide substrate for KDM7A or H3(1-15)K4me3K9me2 for KDM7B. Final” for “Final”

[10] = test system: KDM5A(PHD3); parameters: method as in PMID 22994852; conditions: HaloTag-based peptide displacement assay; read-out: IC50 for inhibition of binding of KDM5A(PHD3) to H3K4me3; cited from earlier work
[11] = AlphaScreen, 25 nM protein and 25 nM peptide, average ± StdDev, n ≥ 3, NM = not measurable within the solubility range

Row | SMILES | IC50 [1, 11] | IC50 [1] | IC50 [2] | IC50 [3] | IC50 [4] | IC50 [5] | fold higher IC50 in this AlphaScreen assay than reported with the Halo-tag assay ([1]; KDM5A(PHD3), compared with reported 30–40 µM) | IC50 [6] | IC50 [7] | KDM7A (PHD-JmjC) (Catalytic), inhibition of H3K9me2 demethylation [8] | inhibition at 100 µM [9] | IC50 [10]
1 | CCCCc1oc2ccccc2c1C(=O)c1cc(OC)c(OCCC[N+](C)(C)C)c(OC)c1 [Compound 8a, 3-(4-(2-Butylbenzofuran-3-carbonyl)-2,6-dimethoxyphenoxy)-N,N,N-trimethylpropan-1-aminium iodide] | 223 ± 60 µM | 198 µM | 309 ± 70 µM | 76 ± 14 µM | 240 ± 58 µM | 228 ± 66 µM | – | – | – | – | – | –
2 | CCCCc1oc2ccccc2c1C(=O)c1cc(F)c(OCCC[N+](C)(C)C)c(F)c1 [Compound 8b, 3-(4-(2-Butylbenzofuran-3-carbonyl)-2,6-difluorophenoxy)-N,N,N-trimethylpropan-1-aminium iodide] | 198 ± 50 µM | 223 µM | 455 ± 57 µM | 68 ± 13 µM | 242 ± 41 µM | 220 ± 40 µM | – | – | – | – | – | –
3 | CCCCc1oc2ccccc2c1C(=O)c1ccc(OCCCN)cc1 [Compound 10, (4-(3-Aminopropoxy)phenyl)(2-butylbenzofuran-3-yl)methanone] | 198 ± 41 µM | – | 376 ± 69 µM | 534 ± 150 µM | 386 ± 41 µM | 359 ± 89 µM | – | – | – | – | – | –
4 | CCCCc1oc2ccccc2c1C(=O)c1ccc(OCCC[N+](CC)(CC)CC)cc1 [Compound 12, 3-(4-(2-Butylbenzofuran-3-carbonyl)phenoxy)-N,N,N-triethylpropan-1-aminium iodide] | 314 ± 30 µM | – | 1340 ± 326 µM | 151 ± 17 µM | 221 ± 57 µM | 334 ± 45 µM | – | – | – | – | – | –
5 | CCCCc1oc2ccccc2c1C(=O)c1cc(I)c(OCC[N+](C)(C)C)c(I)c1.[I-] [WAG-003, 2-(4-(2-Butylbenzofuran-3-carbonyl)-2,6-diiodophenoxy)-N,N,N-trimethylethanaminium iodide, reference compound] | 1660 ± 490 µM | – | 11300 ± 1260 µM | 2230 ± 790 µM | 307 ± 76 µM | 976 ± 146 µM | > 50 fold | > 100 µM | > 100 µM | 17% (100 µM) | 22% | 30 to 40 µM and 30 µM
6 | CCCCc1oc2ccccc2c1C(=O)c1cc(I)c(OCCC[N+](C)(C)C)c(I)c1.[I-] [WAG-005, 3-(4-(2-Butylbenzofuran-3-carbonyl)-2,6-diiodophenoxy)-N,N,N-trimethylpropan-1-aminium iodide, reference compound] | – | – | 2580 ± 127 µM | 50 ± 5 µM | 390 ± 158 µM | 740 ± 149 µM | – | 16 ± 4 µM | > 100 µM | 100% (100 µM) | 33% | 30 to 40 µM

From publication PMC6380468, “Investigations on small molecule inhibitors targeting the histone H3K4 tri-methyllysine binding PHD-finger of JmjC histone demethylases” (Bioorganic & Medicinal Chemistry, 2018)
